Assay results reported in EPA's ToxValDB 9.5 (doi:10.2903/j.efsa.2011.1965).

Assays:
Colinus virginianus = conditions: for LD50: acute, oral, mortality
Oryctolagus sp. = conditions: reproduction developmental; reproduction
Daphnia magna = conditions: chronic/long-term; duration: 21 days; reproduction
Apis mellifera = conditions: acute; duration: 48 hours; oral; unspecified; mortality
Oncorhynchus mykiss = conditions: chronic/long-term; duration: 21 days; behavior
Tagia sp. = conditions: acute; duration: 14 days; mortality
Anas platyrhynchos = conditions: for LD50: oral, mortality
Cyprinus carpio = conditions: acute; duration: 96 hours; mortality
Typhlodromus pyri = assay: LR50; higher = less toxic; conditions: not reported; mortality

COc1c(Cl)ccc(Cl)c1C(=O)O [Dicamba] showed an LD50 (Colinus virginianus; diet) greater than 995 mg/kg-day, an LD50 (Colinus virginianus) of 216 mg/kg-day and an NOEL (Colinus virginianus; reproduction developmental) of 170 mg/kg-day. It also gave an NOAEL (Oryctolagus sp.) of 30 mg/kg-day, an NOEC (Daphnia magna) of 97 mg/L and an LD50 (Apis mellifera) greater than 100 µg/piece. The LD50 (Rattus norvegicus; acute, oral, F, mortality) was 1580 mg/kg-day, the NOAEL (Rattus norvegicus; reproduction developmental, body weight) was 35 mg/kg-day and the NOEC (Oncorhynchus mykiss) was 180 mg/L. The LC50 (Tagia sp.) was greater than 1000 mg/kg, the LD50 (Anas platyrhynchos; acute, unspecified) was 1370 mg/kg-day and the NOEL (Anas platyrhynchos; reproductive) was 89 mg/kg-day. It also gave an LD50 (Anas platyrhynchos; short-term, feed) greater than 1570 mg/kg-day, an LC50 (Cyprinus carpio) greater than 100 µg/mL and an LR50 (Typhlodromus pyri) of 233 g/ha.
